Literature values, collected in US20200316037A1, “COMPOSITIONS AND METHODS FOR TREATING NEOPLASIA” (THE ANGIOGENESIS FOUNDATION, priority 2017, published 2020).
Like-named read-outs stand apart in the source and are kept apart here.

Assays:
[1] = for Undesirable Local Reactions (combined stinging, burning, itching, or irritation/dermatitis/rash): monotherapy at normal concentration and standard dose frequency; for Undesirable Local Reactions (combined itching, burning, bleeding, stinging, pain/soreness, tenderness, irritation): monotherapy
[2] = tested on: superficial Basal Cell Carcinoma (sBCC); conditions: two double-blind vehicle-controlled studies; 5x/week x 6 weeks
BCC = conditions: imiquimod open-label clinical study N=162

SMILES: C=C1/C(=C\C=C2/CCC[C@]3(C)[C@@H]([C@H](C)/C=C/[C@@H](O)C4CC4)CC[C@@H]23)C[C@@H](O)C[C@@H]1O [Calcipotriene 0.005%, Calcipotriene]
- Undesirable Local Reactions (combined stinging, burning, itching, or irritation/dermatitis/rash) [1]: 13-45%

SMILES: CCCCC(=O)O[C@]1(C(=O)CO)CC[C@H]2[C@@H]3CCC4=CC(=O)CC[C@]4(C)[C@H]3[C@@H](O)C[C@@]21C [Hydrocortisone valerate 0.2%, Hydrocortisone valerate]
- Undesirable Local Reactions (combined stinging, burning, itching, or irritation/dermatitis/rash) [1]: 7%

SMILES: CC(C)Cn1cnc2c(N)nc3ccccc3c21 [Imiquimod 5%, Imiquimod]
- sBCC clearance [2]: 75%
- Recurrence Rate of BCC (BCC; Month 0): 10%
- Recurrence Rate of BCC (BCC; Month 3): 13%
- Recurrence Rate of BCC (BCC; Month 6): 15%
- Recurrence Rate of BCC (BCC; Month 12): 16%
- Recurrence Rate of BCC (BCC; Month 24): 21%
- Recurrence Rate of BCC (BCC; Post-treatment): 0%
- Undesirable Local Reactions (combined itching, burning, bleeding, stinging, pain/soreness, tenderness, irritation) ([1]; 2x/week study): 39%
- Undesirable Local Reactions (combined itching, burning, bleeding, stinging, pain/soreness, tenderness, irritation) ([1]; 3x/week study): 63%
- Undesirable Local Reactions (combined itching, burning, bleeding, stinging, pain/soreness, tenderness, irritation) ([1]; 5x/week study): 28%
- Incidence of inflammation ([1]; monotherapy per package label, imiquimod clinical studies): ≤ 97%

SMILES: CC1=C(/C=C/C(C)=C/C=C/C(C)=C/C(=O)O)C(C)(C)CCC1 [Tretinoin 0.1%, Tretinoin]
- Undesirable Local Reactions (combined stinging, burning, itching, or irritation/dermatitis/rash) [1]: 15%
